Test results taken from PubChem BioAssay AID330 (DTP/NCI, 2004).
Several values for one entry are separate records, joined by “and”; a condition that tells them apart may be missing. Equal values may be shown once. Toxic doses and inconclusive results are not listed. The calls were made as follows: active = survival T/C of 150% or more; inactive = T/C below 125% in these data.

System: P388 leukemia ip, CD2F1 mice, survival T/C
Assay: NCI In Vivo Anticancer Drug Screen. Data for tumor model P388 Leukemia (intraperitoneal) in CD2F1 (CDF1) mice
Settings: endpoint: median survival time, higher = longer survival
Method in brief: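 Mice carrying the transplanted tumor received test compound or vehicle. Survival was recorded in each group, and the value is the treated-group measurement divided by that of the vehicle-treated control group.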

[1] = dose: 50.0 mg/kg/injection, schedule: Q01DX005 (ip), vehicle: saline with Tween-80
[2] = dose: 100.0 mg/kg/injection, schedule: Q01DX005 (ip), vehicle: saline with Tween-80
[3] = dose: 200.0 mg/kg/injection, schedule: Q01DX005 (ip), vehicle: saline with Tween-80

Measured: T/C

CC1(Cl)C(=O)OC2CCC(O)C(O)C21 (stereo not drawn)
inactive: dose: 100.0 mg/kg/injection, schedule: Q04DX003 (ip), vehicle: Klucel (hydroxypropylcellulose) (HPC) 101 % of control | dose: 200.0 mg/kg/injection, schedule: Q04DX003 (ip), vehicle: Klucel (hydroxypropylcellulose) (HPC) 102 % of control | dose: 400.0 mg/kg/injection, schedule: Q04DX003 (ip), vehicle: Klucel (hydroxypropylcellulose) (HPC) 106 % of control

C=C(C)[C@H]1C[C@]2(C)[C@@H](C)CC(=O)C[C@H]2[C@@H](OC(=O)/C(C)=C\C)[C@@H]1OC(=O)/C(C)=C/C
inactive: dose: 130.0 mg/kg/injection, schedule: Q01DX001 (ip), vehicle: Klucel (hydroxypropylcellulose) (HPC) 100 % of control | dose: 260.0 mg/kg/injection, schedule: Q01DX001 (ip), vehicle: Klucel (hydroxypropylcellulose) (HPC) 99 % of control | dose: 520.0 mg/kg/injection, schedule: Q01DX001 (ip), vehicle: Klucel (hydroxypropylcellulose) (HPC) 100 % of control

Oc1ccc2ccccc2c1CN(Cc1c(O)ccc2ccccc12)C1CCCCC1
inactive: [1] 97 % of control | [2] 96 % of control | [3] 104 % of control

CC(=O)OCC1OC(OC2C=C(O[Si](C)(C)C)C[C@H]3C(=O)C=CC(=O)[C@@H]23)C(OC(C)=O)C(OC(C)=O)C1OC(C)=O (stereo partly drawn)
inactive: dose: 7.5 mg/kg/injection, schedule: Q01DX005 (ip), vehicle: saline with Tween-80 98 % of control | dose: 15.0 mg/kg/injection, schedule: Q01DX005 (ip), vehicle: saline with Tween-80 98 % of control | dose: 60.0 mg/kg/injection, schedule: Q01DX005 (ip), vehicle: saline with Tween-80 98 % of control and 102 % of control

CN(C)c1ccc2c(Oc3ccccc3)cc(N)nc2c1
inactive: [1] 94 % of control | [2] 92 % of control | [3] 92 % of control

S=C(Nc1ccc(Br)cc1)SCc1ccc(Cl)cc1
inactive: dose: 50.0 mg/kg/injection, schedule: Q01DX009 (ip), vehicle: suspension in saline 97 % of control | dose: 100.0 mg/kg/injection, schedule: Q01DX009 (ip), vehicle: suspension in saline 105 % of control | dose: 200.0 mg/kg/injection, schedule: Q01DX009 (ip), vehicle: suspension in saline 119 % of control
